Values quoted from earlier work in US20150105473A1, “AN ANTIBACTERIAL COMPOSITION WITH LOW AMOUNTS OF SURFACTANT AND ANTIBACTERIAL ACTIVES” (The Dial Corporation, priority 2013, published 2015).

solubility in water: poor solubility in water
Compound: Oc1cc(Cl)ccc1Oc1ccc(Cl)cc1Cl [triclosan]
